According to patent publication US12338203B2 (TAISHO PHARMACEUTICAL CO., LTD., priority 2019, dated 2025):

Target: T1, human LPAR1 (Homo sapiens, UniProt Q92633)
T1 construct: expressed in transfected cells
Assay: Test Example 1: antagonism against response of LPA-induced increase in intracellular Ca2+ concentration in RH7777 cells stably expressing human LPAR1
Format: cell-based
Settings: RH7777 cells stably expressing human LPAR1; Fluo-4 fluorescence, FDSS6000; read-out: IC50 value (concentration producing 50% antagonism against response of LPA-induced increase in intracellular Ca2+ concentration) (converted)
Summary of the method: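 RH7777 cells stably transfected with human LPAR1 were preincubated with test compound 30 min at 37 °C in HBSS/20 mM HEPES/probenecid/0.05% BSA buffer, pH 7.4, then LPA-stimulated.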

T1 sequence (Q92633 whole entry): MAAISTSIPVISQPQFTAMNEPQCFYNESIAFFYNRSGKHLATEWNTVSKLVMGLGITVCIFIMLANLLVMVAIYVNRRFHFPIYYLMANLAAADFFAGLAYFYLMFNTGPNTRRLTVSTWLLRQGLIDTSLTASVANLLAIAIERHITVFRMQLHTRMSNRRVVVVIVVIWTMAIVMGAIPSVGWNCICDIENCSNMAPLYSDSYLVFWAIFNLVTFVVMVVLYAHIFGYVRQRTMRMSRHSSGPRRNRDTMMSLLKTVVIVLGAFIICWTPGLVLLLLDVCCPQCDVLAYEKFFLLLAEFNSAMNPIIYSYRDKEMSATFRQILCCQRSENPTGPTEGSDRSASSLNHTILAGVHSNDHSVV

Row | IC50 | SMILES
1 | 11.3 nM | CCOc1cc([C@@H](C)N(CCCCc2ccccc2)C(=O)NC2(C(=O)O)CCOCC2)cc(OCC)c1C [Example 1-154]
2 | 9.3 nM | CCOc1cc(C(C)N(CCCCc2ccccc2)C(=O)NC2(c3nn[nH]n3)CC(F)(F)C2)c(Cl)c(OCC)c1C(C)=O (stereo not drawn) [10-8]
3 | 4.46 nM | COc1cc(C(C)N(CCO[C@@H](C)c2ccccc2)C(=O)NC2(C(=O)O)CC(F)(F)C2)c(C)c(OC)c1C (stereo partly drawn) [Example 5-151]
4 | 2.47 nM | CCOc1cc([C@@H](C)N(CCCCc2ccccc2)C(=O)NC2(C(=O)O)CC(F)(F)C2)cc(OCC)c1CC [Example 1-48]
5 | 20 nM | CCOc1cc(C(C)N(CCCCc2ccccc2)C(=O)NC2(P(=O)(O)O)CCCC2)cc(OCC)c1C (single isomer, unassigned) [Example 8-2]
6 | 0.944 nM | CCOc1cc(C(C)N(CCCCc2ccccc2)C(=O)NC2(C(=O)O)CC(F)(F)C2)c(C)cc1C(C)=O (stereo not drawn) [Example 1-81]
7 | 6.22 nM | CCOc1c(C2CC2)ccc([C@@H](C)N(CCO[C@H](C)c2cccc(Cl)c2)C(=O)NC2(C(=O)O)CCC2)c1C [Example 4-180]
8 | 3.78 nM | CCOc1cc(C(C)N(CCCCc2ccccc2)C(=O)NC2(C(=O)O)CC(F)(F)C2)cc(OC)c1C (stereo not drawn) [Example 1-68]
9 | 59.8 nM | CCOc1cc(C(C)N(CCCc2cccc(C)c2)C(=O)NC2(C(=O)O)CC(F)(F)C2)cc(OCC)c1C (stereo not drawn) [Example 4-13]
10 | 4.53 nM | CCOc1cc([C@@H](C)N(CCO[C@@H](C)c2ccccc2)C(=O)N[C@]2(C(=O)O)C[C@H](OC)C2)cc(OCC)c1C(C)=O [Example 4-122]
11 | 177 nM | CCOc1cc([C@H](C)N(CCCCc2ccccc2)C(=O)NC2(C(=O)O)CC(F)(F)C2)cc(OCC)c1C(C)=O [Example 1-31, 1-({[(1S)-1-(4-Acetyl-3,5-Diethoxyphenyl)Ethyl](4-Phenylbutyl) Carbamoyl}Amino)-3,3-Difluorocyclobutane-1-Carboxylic Acid]
12 | 128 nM | CCNc1cc(C(C)N(CCCCc2ccccc2)C(=O)NC2(C(=O)O)CCC2)cc(OCC)c1C(C)=O (single isomer, unassigned) [Example 5-111]
13 | 0.948 nM | CCOc1cc([C@@H](C)N(CCO[C@@H](C)c2ccccc2)C(=O)NC2(C(=O)O)CC(F)(F)C2)cc(OCC)c1C1CC1 [Example 4-118]
14 | 1.92 nM | CCOc1cc(C(C)N(CCOCc2ccccc2)C(=O)N[C@]2(C(=O)O)C[C@@H](OCC)C2)c(C)c(OCC)c1C(C)=O (stereo partly drawn) [Example 5-214]
15 | 1.46 nM | CCOc1cc(C(C)N(CCOCc2ccccc2)C(=O)NC2(C(=O)O)CCC2)c(Cl)c(OCC)c1C(C)=O (stereo not drawn) [Example 5-189]
16 | 16.1 nM | CCOc1cc([C@@H](C)N(CCC(F)(F)Cc2ccccc2)C(=O)NC2(C(=O)O)CC(F)(F)C2)cc(OCC)c1C(C)O (single isomer, unassigned) [Example 4-85]
17 | 5.15 nM | CCOc1cc([C@@H](C)N(CCCC(F)(F)c2ccccc2)C(=O)NC2(C(=O)O)CC(OC)C2)cc(OCC)c1C(C)O (single isomer, unassigned) [Example 4-62]
18 | 114 nM | CCOc1cc(C(COC)N(CCCCc2ccccc2)C(=O)NC2(C(=O)O)CC(F)(F)C2)cc(OCC)c1C (stereo not drawn) [Example 3-10]
19 | 57.4 nM | COc1cc(C(C)N(CCCCc2ccccc2)C(=O)NC2(C(=O)O)CCCC2)cc(OC)c1C (stereo not drawn) [Example 1-116]

Row | IC50 | SMILES
20 | 2.74 nM | CCOc1cc([C@@H](C)N(CCC2Cc3ccccc3C2)C(=O)NC2(C(=O)O)CC(F)(F)C2)cc(OCC)c1C [Example 4-21, 1-({[(1R)-1-(3,5-Diethoxy-4-Methylphenyl)Ethyl][2-(2,3-Dihydro-1H-Inden-2-Yl)Ethyl]Carbamoyl}Amino)-3,3-Difluorocyclobutane-1-Carboxylic Acid]
21 | 45.4 nM | CCOc1cc(OCC)cc([C@@H](C)N(CCCCc2ccccc2)C(=O)NC2(C(=O)O)Cc3ccccc3C2)c1 [Example 5-12]
22 | 3.13 nM | CCOc1cc([C@@H](C)N(CCCCc2ccccc2)C(=O)NC2CCC2C(=O)O)cc(OCC)c1C(C)=O (stereo partly drawn) [Example 1-126]
23 | 1.49 nM | CCOc1cc([C@@H](C)N(CCO[C@@H](C)c2ccccc2)C(=O)NC2(C(=O)O)CC2)cc(OCC)c1C1CC1 [Example 4-112]
24 | 13.1 nM | CC(c1cc(Cl)cc(Cl)c1F)N(CCCCc1ccccc1)C(=O)NC1(C(=O)O)CC(F)(F)C1 (stereo not drawn) [Example 1-80]
25 | 8.97 nM | CCCOc1cc(OC)cc(C(C)N(CCCCc2ccccc2)C(=O)NC2(C(=O)O)CC(F)(F)C2)c1 (stereo not drawn) [Example 5-16]
26 | 3.5 nM | CCOc1cc(C(C)N(CCOC(C)c2ccccc2)C(=O)NC2(C(=O)O)CC(OC)C2)c(Cl)c(OCC)c1C(C)=O (stereo not drawn) [Example 5-208]
27 | 3930 nM | Cc1cc(C)cc(CN(CCCCc2ccccc2)C(=O)NC2(C(=O)O)CCCC2)c1 [Example 5-23]
28 | 4.94 nM | CCOc1c(C(C)=O)ccc([C@@H](C)N(CCCC(F)(F)c2ccccc2)C(=O)NC2(C(=O)O)CC2)c1C [Example 4-49]
29 | 8.05 nM | CCOc1cc([C@@H](C)N(CCO[C@@H](C)c2ccccc2)C(=O)N[C@]2(C(=O)O)C[C@H](OCC)C2)c(Cl)c(OCC)c1C(C)O (stereo partly drawn) [Example 5-63]
30 | 3.66 nM | CCOC1CC(NC(=O)N(CCOCc2ccccc2)C(C)c2cc(OC)c(C3CC3)c(OC)c2)(C(=O)O)C1 (stereo not drawn) [Example 5-162]
31 | 7.13 nM | COc1cc(Br)cc(C(C)N(CCCCc2ccccc2)C(=O)NC2(C(=O)O)CC(F)(F)C2)c1 (stereo not drawn) [Example 5-22]
32 | 1040 nM | CCOC(=O)C1(NC(=O)N(CCO[C@@H](C)c2ccccc2)C(C)c2cc(OCC)c(C(C)=O)c(OCC)c2Cl)CC(OCC)C1 (stereo partly drawn) [Example 6-10]
33 | 103 nM | CCOc1cc(C(C)N(CCCCc2ccccc2)C(=O)NC2(C(=O)O)CC(F)(F)C2)cc(OCC)c1C(N)=O (stereo not drawn) [Example 1-40, 1-({[1-(4-Carbamoyl-3,5-Diethoxyphenyl)Ethyl](4-Phenylbutyl) Carbamoyl}Amino)-3,3-Difluorocyclobutane-1-Carboxylic Acid]
34 | 4.9 nM | CCOc1cc([C@@H](C)N(CCCC(F)(F)c2ccccc2)C(=O)N[C@]2(C(=O)O)C[C@@H](OCC)C2)cc(OCC)c1C(C)=O [Example 4-69]
35 | 4.3 nM | COc1cc(C(C)N(CCOCc2ccccc2)C(=O)NC2(C(=O)O)CC(OC)C2)c(C)c(OC)c1C(C)=O (stereo not drawn) [Example 5-154]
36 | 1.72 nM | CCOc1cc([C@@H](C)N(CCCCc2ccccc2)C(=O)NC2(CC(=O)O)CC2)cc(OCC)c1C(C)=O [Example 1-145]
37 | 4.22 nM | CCOc1cc(C(C)N(CCCCc2ccccc2)C(=O)NC2(C(=O)O)CC(F)(F)C2)cc(F)c1C(C)O (stereo not drawn) [Example 1-72]
38 | 4.69 nM | CCOc1cc([C@@H](C)N(CCCCc2ccccc2)C(=O)NC2(c3nnn[nH]3)CC(F)(F)C2)cc(OCC)c1C(C)O (stereo partly drawn) [Example 10-9, N-{(1R)-1-[3,5-Diethoxy-4-(1-Hydroxyethyl)Phenyl]Ethyl}-N′-[3,3-Difluoro-1-(1H-Tetrazol-5-Yl)Cyclobutyl]-N-(4-Phenylbutyl) Urea]

Row | IC50 | SMILES
39 | 4 nM | CCOc1c(C(C)=O)ccc([C@@H](C)N(CCCCc2ccccc2)C(=O)NC2(C(=O)O)CC(OC)C2)c1C (stereo partly drawn) [Example 1-93]
40 | 3.36 nM | CCOc1cc(C(C)N(CCCCc2ccccc2)C(=O)NC2(C(=O)O)CC(F)(F)C2)c(F)c(OCC)c1C (stereo not drawn) [Example 5-83]
41 | 6.25 nM | CCOC1CC(NC(=O)N(CCOC(C)c2ccccc2)C(C)c2cc(OC)c(C)c(OC)c2C)(C(=O)O)C1 (stereo not drawn) [Example 5-170]
42 | 9.68 nM | CCOc1cc([C@@H](C)N(CCCCc2ccc(C)cc2)C(=O)NC2(C(=O)O)CC(F)(F)C2)cc(OCC)c1C [Example 4-17]
43 | 3.49 nM | COc1cc(C(C)N(CCOCc2ccccc2)C(=O)NC2(C(=O)O)CC(F)(F)C2)cc(OC)c1C(C)=O (stereo not drawn) [Example 5-141]
44 | 3.54 nM | COc1cc(C(C)N(CCOC(C)c2ccccc2)C(=O)NC2(C(=O)O)CC(OC)C2)cc(OC)c1C1CC1 (stereo not drawn) [Example 5-157]
45 | 7.45 nM | CCOc1cc([C@@H](C)N(CCC(F)(F)Cc2ccccc2)C(=O)NC2(C(=O)O)CC(OC)C2)c(Cl)c(OCC)c1C(C)=O (stereo partly drawn) [Example 5-42]
46 | 3.97 nM | CCOc1cc([C@@H](C)N(CCO[C@H](C)c2ccccc2)C(=O)N[C@]2(C(=O)O)C[C@@H](OC)C2)c(Cl)c(OCC)c1C(C)=O [Example 5-35]
47 | 3.15 nM | CCOc1cc([C@@H](C)N(CCCC(C)c2ccccc2)C(=O)NC2(C(=O)O)CC(F)(F)C2)cc(OCC)c1C (stereo partly drawn) [Example 4-40, 1-({[(1R)-1-(3,5-Diethoxy-4-Methylphenyl)Ethyl](4-Phenylpentyl) Carbamoyl}Amino)-3,3-Difluorocyclobutane-1-Carboxylic Acid]
48 | 8.93 nM | CCOc1cc(C(C)N(CCCCc2ccccc2)C(=O)NC2(C(=O)O)CC(F)(F)C2)cc(OCC)c1C(C)(C)O (stereo not drawn) [Example 1-32]
49 | 10.8 nM | COc1cc([C@@H](C)N(CCO[C@@H](C)c2ccccc2)C(=O)NC2(C(=O)O)CC(OC)C2)c(Cl)c(OC)c1C(C)=O (stereo partly drawn) [Example 5-124]
50 | 5.46 nM | CCOc1cc(C(C)N(CCCCc2ccccc2)C(=O)NC2(C(=O)O)CC(F)(F)C2)cc(OCC)c1C(=O)OC (stereo not drawn) [Example 1-60]
51 | 18.2 nM | CCOc1cc(C(C)N(CCCCc2ccccc2)C(=O)NC2CCC[C@H]2C(=O)O)cc(OCC)c1C (stereo partly drawn) [Example 1-136]
52 | 5.62 nM | CCOc1cc([C@@H](C)N(CCO[C@@H](C)c2ccccc2)C(=O)NC2(C(=O)O)CC(OCC)C2)cc(OCC)c1C(C)=O (stereo partly drawn) [Example 4-132]
53 | 7.97 nM | CCOC1CC(NC(=O)N(CCOC(C)c2ccccc2)C(C)c2cc(OC)c(C3CC3)c(OC)c2C)(C(=O)O)C1 (stereo not drawn) [Example 5-169]
54 | 3.48 nM | CCOc1cc(C(C)N(CCCCc2ccccc2)C(=O)NC2(C(=O)O)CC(F)(F)C2)cc(F)c1C(C)=O (stereo not drawn) [Example 1-71]
55 | 1.21 nM | CCOc1cc([C@@H](C)N(CCCC(F)(F)c2ccccc2)C(=O)NC2(C(=O)O)CCC2)cc(OCC)c1C(C)=O [Example 4-50]
56 | 20.7 nM | CCNc1cc(C(C)N(CCCCc2ccccc2)C(=O)NC2(C(=O)O)Cc3ccccc3C2)cc(OCC)c1C(C)=O (stereo not drawn) [Example 5-104]
57 | 3.91 nM | CCOc1c(C(C)=O)ccc([C@@H](C)N(CCO[C@@H](C)c2ccccc2)C(=O)NC2(C(=O)O)CCC2)c1C [Example 4-116]
